# In US20250296959A1, “B7-H3 TARGETING PEPTIDES AND CONSTRUCTS THEREOF” (Mariana Oncology Inc., priority 2024, published 2025):
# Where two headings read alike, the source gives them in different places. Starred links: 1 amine or outer side, 2 acyl side, 3 side chain; linkers in the order of their positions; H or OH if unused. Positions of bridges follow the written chain, without caps; N, C: chain ends. Non-standard residues stand in square brackets, D forms with d. Residues, ends and D or L forms follow the SMILES beside them. Groups on a side chain read outwards from the residue. *: point of attachment. Ala(piperidin-4-yl) = O=C([C@H](CC1CCN([*:3])CC1)N[*:1])[*:2]; Phe(3-CH2NH2) = O=C([C@H](Cc1cccc(CN[*:3])c1)N[*:1])[*:2]; DOTA = O=C(O)CN1CCN(CC(=O)O)CCN(CC(=O)*)CCN(CC(=O)O)CC1; Trp(5-F) = N[C@@H](Cc1c[nH]c2ccc(F)cc12)C(=O)O; 1Nal = N[C@@H](Cc1cccc2ccccc12)C(=O)O; Ala(4-THP) = N[C@@H](CC1CCOCC1)C(=O)O; Val(3-OH) = CC(C)(O)[C@H](N)C(=O)O; Chg = N[C@H](C(=O)O)C1CCCCC1; PEG4 = NCCOCCOCCOCCOCCC(=O)O; Tle = CC(C)(C)[C@H](N)C(=O)O; hLeu = CC(C)CC[C@H](N)C(=O)O; Sar = CNCC(=O)O
# Tests used:
# Calu-6 cell line [1] = assay: Net internalization of [177Lu]Lu-labeled peptide in Calu-6 cells; format: cell-based, Human; details: 1 hour, 37° C., glycine pH 2.5 acid wash
# Procedure, shortened: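 Calu-6 cells, human non-engineered lung cancer expressing B7-H3, resuspended in 1% PBSA at 5 million cells/mL and incubated with the 177Lu-labeled conjugate (labeled at 80 °C, pH ~5, RP-HPLC checked). Gamma counting of the bound fraction, then of the pellet after two glycine pH 2.5 acid strips and NaOH lysis, gives internalized activity.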
# human 4lg B7-H3 = target: T1, human 4lg B7-H3 (Homo sapiens, UniProt Q5ZPR3); assay: Affinity determination by surface plasmon resonance (SPR) to 4Ig B7-H3; details: 4Ig B7-H3
# T1 sequence (Q5ZPR3 29-534): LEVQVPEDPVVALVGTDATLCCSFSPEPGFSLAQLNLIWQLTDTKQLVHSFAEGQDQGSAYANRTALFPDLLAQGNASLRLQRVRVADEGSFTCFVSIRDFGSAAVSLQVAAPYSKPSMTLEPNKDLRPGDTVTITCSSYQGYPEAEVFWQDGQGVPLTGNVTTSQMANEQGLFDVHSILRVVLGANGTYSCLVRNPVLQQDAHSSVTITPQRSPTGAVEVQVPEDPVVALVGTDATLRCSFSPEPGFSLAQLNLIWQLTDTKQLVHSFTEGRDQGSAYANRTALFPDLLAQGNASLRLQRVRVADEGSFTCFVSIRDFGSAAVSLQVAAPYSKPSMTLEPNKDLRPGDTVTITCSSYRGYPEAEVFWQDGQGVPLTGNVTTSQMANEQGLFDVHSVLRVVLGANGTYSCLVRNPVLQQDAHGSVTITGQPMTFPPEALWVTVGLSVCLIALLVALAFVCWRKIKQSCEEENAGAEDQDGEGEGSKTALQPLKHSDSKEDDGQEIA
# Calu-6 cell line [2] = assay: Cell associated (bound) fraction of [177Lu]Lu-labeled peptide in Calu-6 cells; format: cell-based, Human; details: 1 hour, 37° C.
# Procedure, shortened: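 Detached B7-H3-expressing human lung cancer cells at 5 million/mL were exposed for 1 hour at 37 °C to 0.8 μCi of the 177Lu-labelled peptide, which was formulated in 1% PBSA after labelling at 80 °C, pH ~5. Supernatant and two cold washes counted as unbound, and resuspended cells gamma-counted as the cell-associated fraction.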
# [3] = read-out: SPR KD—37° C., 37° C. flow cell temperature
# [4] = read-out: SPR KD—25° C., 25° C. flow cell temperature
SMILES,% net internalization (Calu-6 cell line [1]),Kd (human 4lg B7-H3; [3]) [nM],% cell associated fraction (Calu-6 cell line [2]),"Kd (human 4lg B7-H3; SPR KD—25° C., 25° C. flow cell temperature) [nM]",Kd (human 4lg B7-H3; [4]) [nM]
"CC(=O)N[C@@H](CCC(C)C)C(=O)N[C@@H](Cc1ccc(O)cc1)C(=O)N[C@H]1CSSC[C@@H](C(=O)N[C@@H](Cc2c[nH]c3ccc(F)cc23)C(=O)N[C@@H](Cc2ccccc2)C(=O)N[C@H](C(=O)N[C@H](CCCCNC(=O)CN2CCN(CC(=O)O)CCN(CC(=O)O)CCN(CC(=O)O)CC2)C(=O)O)C(C)(C)O)NC(=O)[C@H](Cc2ccc(O)cc2)NC(=O)[C@H](C(C)C)NC(=O)[C@H](CC(=O)O)NC(=O)[C@H](CC2CCOCC2)NC(=O)[C@H](CC2CCNCC2)NC(=O)CNC(=O)[C@H](C(C)(C)C)NC1=O [compound 340, Ac-hLeu-Y-C-Tbg-G-PipAla-ThpA-D-V-Y-C-5FW-F-hydroxyVal-dLys(DOTA)-COOH] (Ac-[hLeu]YC[Tle]G[Ala(piperidin-4-yl)][Ala(4-THP)]DVYC[Trp(5-F)]F[Val(3-OH)][dK](DOTA)-OH; disulfide 3-11)",A (%≤25),< 1,C (%>50),–,–
"CC(=O)N[C@@H](CCC(C)C)C(=O)N[C@@H](Cc1ccc(O)cc1)C(=O)N[C@H]1CSSC[C@@H](C(=O)N[C@@H](Cc2c[nH]c3ccc(F)cc23)C(=O)N[C@@H](Cc2ccccc2)C(=O)N[C@H](C(=O)N[C@H](C)C(N)=O)C(C)(C)O)NC(=O)[C@H](Cc2ccc(O)cc2)NC(=O)[C@H](C(C)C)NC(=O)[C@H](CC(=O)O)NC(=O)[C@H](CC2CCN(C(=O)CCOCCOCCOCCOCCNC(=O)CN3CCN(CC(=O)O)CCN(CC(=O)O)CCN(CC(=O)O)CC3)CC2)NC(=O)[C@H](CCCCN)NC(=O)CNC(=O)[C@H](C(C)(C)C)NC1=O [compound 385, Ac-hLeu-Y-C-Tbg-G-K-Pip(PEG4-DOTA)Ala-D-V-Y-C-5FW-F-hydroxyVal-dAla-CONH2] (Ac-[hLeu]YC[Tle]GK[Ala(piperidin-4-yl)]([PEG4-DOTA])DVYC[Trp(5-F)]F[Val(3-OH)][dA]-NH2; disulfide 3-11)",B (25<%≤50),< 1,C (%>50),–,–
"CC(=O)N[C@@H](CCC(C)C)C(=O)N[C@@H](Cc1ccc(O)cc1)C(=O)N[C@H]1CSSC[C@@H](C(=O)N[C@@H](Cc2c[nH]c3ccc(F)cc23)C(=O)N[C@@H](Cc2ccccc2)C(=O)N[C@H](C(=O)N[C@H](CCC(=O)O)C(N)=O)C(C)(C)O)NC(=O)[C@H](Cc2ccc(O)cc2)NC(=O)[C@H](C(C)C)NC(=O)[C@H](CC(=O)O)NC(=O)[C@H](CC2CCN(C(=O)CCOCCOCCOCCOCCNC(=O)CN3CCN(CC(=O)O)CCN(CC(=O)O)CCN(CC(=O)O)CC3)CC2)NC(=O)[C@H](CC2CCNCC2)NC(=O)CNC(=O)[C@H](C(C)(C)C)NC1=O [compound 444, Ac-hLeu-Y-C-Tbg-G-PipAla-Pip(PEG4-DOTA)Ala-D-V-Y-C-5FW-F-hydroxyVal-dGlu-CONH2] (Ac-[hLeu]YC[Tle]G[Ala(piperidin-4-yl)][Ala(piperidin-4-yl)]([PEG4-DOTA])DVYC[Trp(5-F)]F[Val(3-OH)][dE]-NH2; disulfide 3-11)",A (%≤25),< 1,B (25<%≤50),–,–
"CC(=O)N[C@@H](CCC(C)C)C(=O)N[C@@H](Cc1ccc(O)cc1)C(=O)N[C@H]1CSSC[C@@H](C(=O)N[C@@H](Cc2c[nH]c3ccc(F)cc23)C(=O)N[C@@H](Cc2ccccc2)C(=O)N[C@H](C(N)=O)[C@@H](C)O)NC(=O)[C@H](Cc2ccc(O)cc2)NC(=O)[C@H](C(C)C)NC(=O)[C@H](CC(=O)O)NC(=O)[C@H](Cc2cccc(CNC(=O)CN3CCN(CC(=O)O)CCN(CC(=O)O)CCN(CC(=O)O)CC3)c2)NC(=O)[C@H](CCCCN)NC(=O)CNC(=O)[C@H](C(C)C)NC1=O [compound 182, Ac-hLeu-Y-C-V-G-K-MAF(DOTA)-D-V-Y-C-5FW-F-Thr-CONH2] (Ac-[hLeu]YCVGK[Phe(3-CH2NH2)](DOTA)DVYC[Trp(5-F)]FT-NH2; disulfide 3-11)",C (%>50),–,C (%>50),< 1,–
"CC(=O)N[C@@H](CCC(C)C)C(=O)N[C@@H](Cc1ccc(O)cc1)C(=O)N[C@H]1CSSC[C@@H](C(=O)N[C@@H](Cc2c[nH]c3ccc(F)cc23)C(=O)N[C@@H](Cc2ccccc2)C(=O)N[C@H](C(=O)N[C@H](CCCCNC(=O)CN2CCN(CC(=O)O)CCN(CC(=O)O)CCN(CC(=O)O)CC2)C(=O)O)C(C)(C)O)NC(=O)[C@H](Cc2ccc(O)cc2)NC(=O)[C@H](C(C)C)NC(=O)[C@H](CC(=O)O)NC(=O)[C@H](CC2CCOCC2)NC(=O)[C@H](CCCCN)NC(=O)CNC(=O)[C@H](C(C)(C)C)NC1=O [compound 303, Ac-hLeu-Y-C-Tbg-G-K-ThpA-D-V-Y-C-5FW-F-hydroxyVal-dLys(DOTA)-COOH] (Ac-[hLeu]YC[Tle]GK[Ala(4-THP)]DVYC[Trp(5-F)]F[Val(3-OH)][dK](DOTA)-OH; disulfide 3-11)",B (25<%≤50),< 1,C (%>50),–,< 1
"CC(=O)N[C@@H](CCC(C)C)C(=O)N[C@@H](Cc1ccc(O)cc1)C(=O)N[C@H]1CSSC[C@@H](C(=O)N[C@@H](Cc2c[nH]c3ccc(F)cc23)C(=O)N[C@@H](Cc2ccccc2)C(=O)N[C@H](C(=O)N[C@H](CCCCNC(=O)CN2CCN(CC(=O)O)CCN(CC(=O)O)CCN(CC(=O)O)CC2)C(=O)O)C(C)(C)O)NC(=O)[C@H](Cc2ccc(O)cc2)NC(=O)[C@H](C(C)C)NC(=O)[C@H](CC(=O)O)NC(=O)[C@H](CC2CCOCC2)NC(=O)[C@H](CCCCN)NC(=O)CN(C)C(=O)[C@H](C(C)(C)C)NC1=O [compound 348, Ac-hLeu-Y-C-Tbg-Sar-K-ThpA-D-V-Y-C-5FW-F-hydroxyVal-dLys(DOTA)-COOH] (Ac-[hLeu]YC[Tle][Sar]K[Ala(4-THP)]DVYC[Trp(5-F)]F[Val(3-OH)][dK](DOTA)-OH; disulfide 3-11)",A (%≤25),< 1,B (25<%≤50),–,–
"CC(=O)N[C@@H](CCC(C)C)C(=O)N[C@@H](Cc1ccc(O)cc1)C(=O)N[C@H]1CSSC[C@@H](C(=O)N[C@@H](Cc2c[nH]c3ccc(F)cc23)C(=O)N[C@@H](Cc2ccccc2)C(=O)N[C@H](C(=O)N[C@H](CCCCNC(=O)CN2CCN(CC(=O)O)CCN(CC(=O)O)CCN(CC(=O)O)CC2)C(N)=O)[C@@H](C)O)NC(=O)[C@H](Cc2ccc(O)cc2)NC(=O)[C@H](C2CCCCC2)NC(=O)[C@H](CC(=O)O)NC(=O)[C@H](Cc2ccc(O)cc2)NC(=O)[C@H](CCCCN)NC(=O)CNC(=O)[C@H](C(C)C)NC1=O [compound 215, Ac-hLeu-Y-C-V-G-K-Y-D-ChG-Y-C-5FW-F-Thr-dLys(DOTA)-CONH2] (Ac-[hLeu]YCVGKYD[Chg]YC[Trp(5-F)]FT[dK](DOTA)-NH2; disulfide 3-11)",A (%≤25),–,C (%>50),–,< 1
"CC(=O)N[C@@H](CCC(C)C)C(=O)N[C@@H](Cc1ccc(O)cc1)C(=O)N[C@H]1CSSC[C@@H](C(=O)N[C@@H](Cc2cccc3ccccc23)C(=O)N[C@@H](Cc2ccccc2)C(=O)N[C@H](C(=O)N[C@H](CCCCNC(=O)CN2CCN(CC(=O)O)CCN(CC(=O)O)CCN(CC(=O)O)CC2)C(N)=O)[C@@H](C)O)NC(=O)[C@H](Cc2ccc(O)cc2)NC(=O)[C@H](C(C)C)NC(=O)[C@H](CC(=O)O)NC(=O)[C@H](Cc2ccc(O)cc2)NC(=O)[C@H](CCCCN)NC(=O)CNC(=O)[C@H](C(C)(C)C)NC1=O [compound 179, Ac-hLeu-Y-C-Tbg-G-K-Y-D-V-Y-C-1Nal-F-Thr-dLys(DOTA)-CONH2] (Ac-[hLeu]YC[Tle]GKYDVYC[1Nal]FT[dK](DOTA)-NH2; disulfide 3-11)",A (%≤25),–,B (25<%≤50),–,< 1
"CC(=O)N[C@@H](CCC(C)C)C(=O)N[C@@H](Cc1ccc(O)cc1)C(=O)N[C@H]1CSSC[C@@H](C(=O)N[C@@H](Cc2c[nH]c3ccc(F)cc23)C(=O)N[C@@H](Cc2ccccc2)C(=O)N2CCC[C@H]2C(=O)N[C@H](CCCCNC(=O)CN2CCN(CC(=O)O)CCN(CC(=O)O)CCN(CC(=O)O)CC2)C(=O)O)NC(=O)[C@H](Cc2ccc(O)cc2)NC(=O)[C@H](C(C)C)NC(=O)[C@H](CC(=O)O)NC(=O)[C@H](CC2CCOCC2)NC(=O)[C@H](CCCCN)NC(=O)CNC(=O)[C@H](C(C)C)NC1=O [compound 288, Ac-hLeu-Y-C-V-G-K-ThpA-D-V-Y-C-5FW-F-Pro-dLys(DOTA)-COOH] (Ac-[hLeu]YCVGK[Ala(4-THP)]DVYC[Trp(5-F)]FP[dK](DOTA)-OH; disulfide 3-11)",A (%≤25),–,B (25<%≤50),–,< 1
